Columns and labels:
bacterial genomic DNA = experiment: Agarose gel electrophoresis of bacterial genomic DNA in presence of soybean trypsin inhibitor and EDTA; type: biochemical, E. coli; conditions: 20 minutes 37° C.
Experimental: Samples containing bacterial genomic DNA, and ES or DNase in the absence and presence of EDTA and a soybean trypsin inhibitor were loaded onto an agarose gel to observe the effects of these inhibitors on DNase activity. A soybean trypsin inhibitor (Sigma) was washed 4 times with PBS and each time centrifuged into a pellet and the PBS removed as the supernatant. On the 5th washing, 500 μl of PBS were used to suspend the trypsin inhibitor and this was equally distributed between the samples to be treated. Samples of ES 162.3 μg/ml and PBS (control) were treated with the soybean trypsin inhibitor in order to remove any serine proteinases present. These samples were treated with STI 3 times in order to achieve maximal removal of serine proteinases, again following each treatment the solution was centrifuged and the ES/PBS removed as the supernatant. Following washing, these solutions were transferred to a fresh Eppendorf.
15.34 μl of 1.385 mg/ml bacterial genomic DNA was diluted to 0.1 mg/ml in 184.6 μl of either sterile PBS or 5 mM EDTA. 121.1 μg/ml DNase was also made up (10 μl of 1 mg/ml diluted in 72.6 μl of PBS.) In order to make up the samples, 50 μl of the appropriate one of these DNA solutions plus 3.125 μl of STI treated/untreated DNase/ES/PBS. […]

DNA methyl green [1] = experiment: Dose dependency curves (DNA methyl green, 96 well plate); type: biochemical; conditions: for EC50: 37° C.
Experimental: In order to further characterise ES, dose dependency curves were created enabling the EC50 value to be determined. ES was diluted to a concentration of 13.40 μg/ml in PBS, following this 1 in 10 dilutions in PBS were then performed. DNase was diluted to a concentration of 10 μg/ml in PBS, this was then also subject to 1 in 10 dilutions. 20 μl of each dilution was added to 180 μl of 0.2 mg/ml DNA methyl green in a 96 well plate (done in triplicate). Absorbance readings were then taken after 3, 18, and 24 hours at 630 nm in an Anthos Lucy1 microplate luminometer. The dose dependency curves were created by plots of log10 concentration (mcg/ml) against mean absorbance (630 nm) in the statistical analysis program, GraphPad Prism™.

DNA methyl green [2] = experiment: DNA methyl green assay of ES and DNase activity in the presence of EDTA; type: biochemical; conditions: 5.07 μg/ml ES, 3.78 μg/ml DNase
Experimental: 125 μl of 81.15 μg/ml ES was added to both 1875 μl DNA methyl green (0.2 mg/ml) and DNA methyl green containing 5 mM EDTA. Final concentrations are therefore 5.07 μg/ml ES and 4.7 mM EDTA. DNase was diluted to 121.1 μg/ml, diluted 1 in 2 and added to 1875 μl of DNA methyl green and DNA methyl green containing EDTA. The activity of STI treated ES was also assayed in the same way, in the presence of or in the absence of EDTA. These samples were then incubated in a water bath at 37° C. 100 μl samples were taken every 2 minutes (in triplicate) and added to 150 μl of 0.083M sodium citrate in a 96 well plate. The plates were left to stand overnight and the absorbance then read at 630 nm in an Anthos Lucy1 microplate luminometer.

DNase
degradation of bacterial genomic DNA in presence of EDTA (bacterial genomic DNA; 5 mM EDTA): no DNase activity | degradation of bacterial genomic DNA in absence of EDTA (bacterial genomic DNA; untreated, no EDTA): no DNase activity | EC50 (DNA methyl green [1]; absorbance reading at 3 hours): 0.1921 µg/mL | EC50 (DNA methyl green [1]; absorbance reading at 18 hours): 0.0605 µg/mL | EC50 (DNA methyl green [1]; absorbance reading at 24 hours): 0.0571 µg/mL | potency of DNase relative to ES (DNA methyl green [1]; from EC50 values): 3 times | DNase activity in the presence of EDTA (DNA methyl green [2]; EDTA): activity almost abolished | DNase activity in the absence of EDTA (DNA methyl green [2]; no EDTA): relatively similar activity

— patent US20090304668A1, “LARVAL POLYPEPTIDES HAVING A NUCLEASE ACTIVITY” (The Secretary of State for Defence, priority 2006, published 2009)
